Here are results for three compounds from patent US20090226544A1, “Pharmaceutical Compound For Treating Inflammation, Pain, Arthritis And Spinitis, And Proliferating Osteoblastic Cell And Method For Producing Thereof” (priority 2005, published 2009).

Structures are written as SMILES.

What all share (type): in vivo
The test system of experiment [1] is SD male albino rats. As to the kind of experiment: Carrageenan-induced hind paw edema, Example 4 at 30-600 mg/kg (Experimental Example 4). On the procedure:
(§1) SD male albino rats weighing 150 to 170 g, which were fasted for 16 hours before experimental use, were used as test animals to induce edema by subcutaneously injecting 0.1 ml of a 1% type IV lambda carrageenan-saline solution as a […] to the subplantar of the right hind paw of each of the albino rats (Winter et al., 1962). The paw volume was measured with a plethysmometer (Ugo Basile, Italy) 0.5, 1, 2, 4 and 6 hours after injection of carrageenan and compared with the paw volume measured before injection of carrageenan for calculation of an increase (%) of paw volume. In addition, an increase (%) of paw volume for a control group was compared with increases (%) of paw volume for treatment groups for obtaining a reduction ratio (%) of paw volume. The pharmaceutical compositions prepared in Examples 1 through 4 were orally administered to the […] 30 minutes before injection of carrageenan. The extent of paw edema (or swelling) was obtained based on the edema enhancement rate and edema inhibition rate measured using the following relationship. […] Phenylbutazone was used as a positive control. In order to examine the inhibitory effect of the pharmaceutical composition prepared in Example 4 of the present invention on acute inflammation induced by carrageenan, […] Experimental Example 1 and the results are summarized in Table 4.

Experiment [2] concerns SD male albino rats. As to the kind of experiment: Carrageenan-induced hind paw edema, Example 4 administered for 2 weeks (Experimental Example 5). The conditions noted are these: dose 5 mg/kg, 2-week test. The method, then:
as §1, with “4. […]” for “4.”

Experiment [3] has as its system SD male albino rats. The experiment is described as above. The conditions noted are these: dose 5 mg/kg; 2-week test; 2 h after carrageenan.
The subject of experiment [4] is SD male albino rats. As to the kind of experiment: Acute inflammation test by carrageenan-induced hind paw edema, composition given 30 minutes before carrageenan (Experimental Example 1). The conditions noted are these: dose 50 mg/kg oral. On the procedure:
(§2) SD male albino rats weighing 150 to 170 g, which were fasted for 16 hours before experimental use, were used as test animals to induce edema by subcutaneously injecting 0.1 ml of a 1% type IV lambda carrageenan-saline solution as a […] to the subplantar of the right hind paw of each of the albino rats (Winter et al., 1962). The paw volume was measured with a plethysmometer (Ugo Basile, Italy) 0.5, 1, 2, 4 and 6 hours after injection of carrageenan and compared with the paw volume measured before injection of carrageenan for calculation of an increase (%) of paw volume. In addition, an increase (%) of paw volume for a control group was compared with increases (%) of paw volume for treatment groups for obtaining a reduction ratio (%) of paw volume. […] The extent of paw edema (or swelling) was obtained based on the edema enhancement rate and edema inhibition rate measured using the following relationship.

In experiment [5] the test system is SD male albino rats. Nature of the experiment: Acute inflammation test by carrageenan-induced hind paw edema after 2 weeks of administration (Experimental Example 2). The settings on record: dose 50 mg/kg, 2-week test. The method, then:
as §2

Another experiment has as its system ICR male mice. Nature of the experiment: Analgesic effect test, acetic acid-induced writhing (Experimental Example 3). The settings on record: dose 50 mg/kg oral. On the procedure:
The pharmaceutical compositions prepared in Examples 1 through 4 were orally administered to ICR (Institute of Cancer Research) male mice weighing 25 to 28 g, which were fasted for 12 hours before experimental use. After 30 minutes of administration, 0.7% acetic acid-saline solution was intraperitoneally injected to the mice in a dose of […] per 10 g of body weight and from 5 minutes after administration, the number of writhings occurring to each mouse was counted for 10 minutes (Koster et al., 1959) and the results are summarized in Table 3. Phenylbutazone was used as a positive control.

On to `O=C(O)COC(=O)Cc1ccccc1Nc1c(Cl)cccc1Cl` [Aceclofenac, aceclofenac], for which the “Increased percent of paw volume (%)” value with SD male albino rats [1] (0.5 h after carrageenan) came out at 12.1 ± 2.6%; in the experiment on SD male albino rats [1] (1 h after carrageenan), 12.1 ± 3.5 %; with SD male albino rats [1] (2 h after carrageenan), 16.7 ± 3.0 %; in the experiment on SD male albino rats [1] (4 h after carrageenan) it was 36.9 ± 5.1 %; in the experiment with SD male albino rats [1] (6 h after carrageenan) it was 50.6 ± 3.9 %; in the experiment with SD male albino rats [2] (0.5 h after carrageenan), 10.1 ± 1.4 %. The “Increased percent of paw volume (%)” value in the experiment with SD male albino rats [2] (1 h after carrageenan) came to 15.1 ± 1.7 %; with SD male albino rats [2] (4 h after carrageenan), 55.3 ± 3.9 %; in the experiment with SD male albino rats [2] (6 h after carrageenan), 61.0 ± 3.5%; in the experiment on SD male albino rats [3], 19.7 ± 2.0 %. Besides, the “reduction ratio (%) of paw volume vs control” value (shortened to “reduction ratio (%)”) in the experiment with SD male albino rats [1] (0.5 h after carrageenan) is listed as 34.8%; in the experiment with SD male albino rats [1] (1 h after carrageenan) it was 53.7%; in the experiment with SD male albino rats [1] (2 h after carrageenan) it was 58.7%; in the experiment with SD male albino rats [1] (4 h after carrageenan) it was 56.1%; with SD male albino rats [1] (6 h after carrageenan) it was 31.5%; in the experiment with SD male albino rats [2] (0.5 h after carrageenan) it was 62.6%. The “reduction ratio (%)” value in the experiment with SD male albino rats [2] (1 h after carrageenan) is reported as 51.4%; in the experiment with SD male albino rats [2] (2 h after carrageenan) it was 59.2%; with SD male albino rats [2] (4 h after carrageenan), 29.4%; in the experiment with SD male albino rats [2] (6 h after carrageenan), 19.4%.
Take `CCCCC1C(=O)N(c2ccccc2)N(c2ccccc2)C1=O` [Phenylbutazone, phenylbutazone]: the “Increased percent of paw volume (%)” value was 14.0 ± 0.9 % in the experiment on SD male albino rats [4] (1 h after carrageenan); 25.0 ± 3.7 % in the experiment with SD male albino rats [4] (2 h after carrageenan); 37.8 ± 4.3% in the experiment with SD male albino rats [4] (4 h after carrageenan); 35.0 ± 2.4 % in the experiment with SD male albino rats [4] (6 h after carrageenan); 13.2 ± 0.8 % with SD male albino rats [5] (1 h after carrageenan); 19.3 ± 2.4 % with SD male albino rats [5] (2 h after carrageenan). For the same compound, the “Increased percent of paw volume (%)” value in the experiment on SD male albino rats [5] (4 h after carrageenan) was determined as 39.1 ± 5.0 %; in the experiment on SD male albino rats [5] (6 h after carrageenan) it was 35.0 ± 2.4 %. For the same compound, the Number of writhing in the experiment on ICR male mice (counted for 10 minutes) is listed as 12.3 ± 0.9. In addition, in the experiment on ICR male mice (writhing), the “Inhibition rate (%)” value is 50.1%.
Take `O=C(O)Cc1ccccc1Nc1c(Cl)cccc1Cl` [Diclofenac, diclofenac]: the “Increased percent of paw volume (%)” value was determined as 9.6 ± 1.6 % in the experiment on SD male albino rats [1] (0.5 h after carrageenan); 13.6 ± 2.6 % with SD male albino rats [1] (1 h after carrageenan); 17.7 ± 3.1 % in the experiment on SD male albino rats [1] (2 h after carrageenan); 37.24 ± 5.9 % in the experiment with SD male albino rats [1] (4 h after carrageenan); 34.89 ± 2.8 % in the experiment on SD male albino rats [1] (6 h after carrageenan); 12.0 ± 1.8 % in the experiment on SD male albino rats [2] (0.5 h after carrageenan). The “Increased percent of paw volume (%)” value is listed as 13.7 ± 1.4 % with SD male albino rats [2] (1 h after carrageenan), 49.2 ± 3.9 % in the experiment on SD male albino rats [2] (4 h after carrageenan), 51.8 ± 4.0 % with SD male albino rats [2] (6 h after carrageenan) and 22.0 ± 2.0 % in the experiment on SD male albino rats [3]. The “reduction ratio (%)” value with SD male albino rats [1] (0.5 h after carrageenan) is reported as 47.5%; with SD male albino rats [1] (1 h after carrageenan) it was 48.0%; in the experiment with SD male albino rats [1] (2 h after carrageenan), 56.3%; with SD male albino rats [1] (4 h after carrageenan), 55.7%; in the experiment with SD male albino rats [1] (6 h after carrageenan), 52.8%; with SD male albino rats [2] (0.5 h after carrageenan), 55.5%. Also, the “reduction ratio (%)” value was found to be 55.6% in the experiment with SD male albino rats [2] (1 h after carrageenan), 54.4% in the experiment with SD male albino rats [2] (2 h after carrageenan), 37.1% in the experiment with SD male albino rats [2] (4 h after carrageenan) and 31.50% with SD male albino rats [2] (6 h after carrageenan).
